Converted amounts (≈) assume the structure as drawn. Read-outs that look alike come from different tables or passages of the source.
Key:
[1] = system: Caspase-2 activity in B.5 LX-1 cells; assay: Caspase-2 enzymatic activity (apoptosis); assay type: cell-based
Method: FIGS. 7A and 7B show the effect of cytoenhancement and chemoprotection on apoptosis. […] Apoptosis was assessed in cultured LX-1 SCLC cells pretreated for 18 hours with or without 100 μM BSO. The experimental conditions were no addition (open bars), melphalan (10 μg/ml, striped bars) or melphalan (10 μg/ml) plus N-acetylcysteine (1000 μg/ml) (cross hatched bars) for 20 h prior to harvest. Caspase-2 activity is expressed as percentage activity in untreated control samples (mean±standard deviation, n=3). TUNEL staining is expressed as the percentage of cells showing positive staining.
Apoptosis was evaluated by measuring Caspase-2 enzymatic activity and by in situ TUNEL staining. […] The increase in caspase activity was variable between experiments and ranged from 50–100% at 7–8 h to 250–600% at 20–24 h after treatment with melphalan. […] In the experiment shown in FIG. 7B, TUNEL staining after melphalan treatment was positive in 29 of 3643 cells, compared to 7 of 4395 cells in the untreated control, and BSO treatment prior to melphalan increased the positive staining to 800 of 1699 cells. […] In both assays, activity was maximal with low doses of melphalan, or with a 1 hour pulse treatment with the doses used in the cytotoxicity assays.
Samples of the cells used in the caspase and TUNEL assays were also evaluated for membrane permeability by trypan blue exclusion.

[2] = system: B.5 LX-1 cells; assay: cells
Method: FIGS. 4A and 4B show cytoenhancement and chemoprotection. […] Cytotoxicity was assessed in cultured LX-1 SCLC cells, 1×10^4 cells per well in 96 well plates, using the WST colorometric assay. BSO cytoenhancement consisted of preincubation at 100 μM BSO for 18 hours. The chemoprotective agent was added immediately after chemotherapy. The experimental conditions were dose/responses for chemotherapy (carboplatin or etoposide phosphate) alone (m), BSO cytoenhancement ( ? ), N-acetylcysteine rescue, (1000 μg/ml N-acetylcysteine, n), or BSO cytoenhancement and N-acetylcysteine rescue (u). Data are expressed as the percentage of live cells compared to untreated control samples without chemotherapy and each point represents the mean±standard deviation of 4 wells.
The effects of BSO cytoenhancement and thiol chemoprotection on the dose/response relationships for cytotoxicity of the alkylating chemotherapeutics were evaluated in the B.5 LX-1 cells. BSO cytoenhancement consisted of preincubation with 100 μM BSO for about 18–24 hours prior to addition of chemotherapy, and rescue consisted of 1000–2000 μg/ml of thiol chemoprotectant added immediately after chemotherapy.
Cytoenhancement and chemoprotection against non-alkylating chemotherapeutic agents was also evaluated.
Half-maximal cytotoxic concentrations (EC50) are expressed as μg/ml. Each EC50 measurement comprised 6 concentrations with 4 wells per concentration, and each dose response was performed in triplicate for each chemotherapeutic agent. Data are reported as the mean±pooled standard deviation for three independent experiments. P values are shown for the reduction in EC50 by BSO treatment (*=P<0.05, **=P<0.01, ***=P<0.001).

[3] = system: LX-1 SCLC cells; assay: cells; settings: for EC50: average ± pooled sd of two experiments
Method: Cytotoxicity was assessed in cultured LX-1 SCLC cells, 1×10^4 cells per well in 96 well plates, using the WST colorometric assay. […] Chemoprotectant was added at the indicated concentration of N-acetylcysteine shown in FIG. 3A or D-methionine shown in FIG. 3B either alone (n) or immediately following chemotherapy. Data are expressed as the percentage of live cells compared to untreated control samples (without chemotherapy) and each point represents the mean±standard deviation of 4 wells.
The dose/response for rescue from chemotherapy cytotoxicity was evaluated for four different small molecular weight sulfur containing chemoprotectants.
Chemotherapy agents were fixed at the 90% lethal dose for each agent. Each EC50 measurement comprised 6 concentrations with 4 wells per concentration, and each dose response was performed twice for each protectant. EC50 concentrations, in μg/ml are reported as the average±pooled standard deviation for two independent experiments.

[4] = system: rats; assay: Blood counts after chemotherapy with or without NAC by left carotid aortic infusion (Example 1); assay type: in vivo, rat
Excerpt: The rats were set up for drug administration by pushing a catheter forward past the junction of the external and internal carotid arteries (toward the aorta), and temporarily sealing off the internal carotid for good measure so nothing goes to the brain (left carotid aortic infusion method). In patients where entry is via the femoral artery and the catheter is threaded through the aorta to get to the brain in the first place, one would just pull the catheter back to the aorta to do the NAC infusion.
Rats were treated with carboplatin (200 mg/m^2), melphalan (10 mg/m^2) and etoposide phosphate (100 mg/m^2). In the NAC animals, NAC was infused with the left carotid aortic infusion method immediately after the chemotherapeutic agents, at concentrations ranging from 400–1200 mg/M^2. White blood cells (wbc) and platelets (plt) were counted at baseline before the experiment and at 6 and 9–11 days after treatment with the chemotherapeutic agents. […] Counts are in 1000s per μl blood. […] The lack of white blood cell effect was not repeated as there were significant effects shown below.
The data in table 2 show additional results. […] White blood cells (wbc) and platelets (plt) were counted at baseline before the experiment and at 6 and 9 days after treatment with the chemotherapeutic agents.

[5] = system: GM294 human fibroblasts; assay: Cytoenhancement and chemoprotection in fibroblasts, WST assay; assay type: cell-based; settings: independent of BSO treatment; 1000 μg/ml
Method: Cytotoxicity was assessed in GM294 human fibroblasts, 1×10^4 cells per well in 96 well plates, using the WST colorometric assay. […] Data are expressed as the percentage of live cells compared to control samples (without chemotherapy) and each point represents the mean±s.d. of 4 wells.

[6] = system: rat
Method: FIG. 9 represents tests showing the effect of NAC route of administration on mortality+/−BSO. A Kaplan-Meier product limit analysis was used to evaluate the mortality due to chemoprotection with NAC. Rats were treated with or without BSO (10 mg/kg i.p. b.i.d.×3, black bars) prior to treatment with chemotherapy (Carboplatin 200 mg/m2, etoposide phosphate 100 mg/m2, melphalan 10 mg/m2). Chemoprotection consisted of NAC (1200 mg/m2) or NAC (1000 mg/m2) plus STS (8 g/m2) given either i.v. (n=17 BBSO, n=8+BSO) or by aortic infusion (n=19 BBSO, n=28+BSO).
A dose escalation of NAC was performed in the rat.
The toxicity of NAC was determined when infused for bone marrow protection.

[7] = system: cultured tumor cells; assay: Paclitaxel cytotoxicity with BSO and NAC (WST); assay type: cell-based
[8] = administered intravenously; cited from earlier work

## CC(=O)N[C@@H](CS)C(=O)O [NAC, N-acetylcysteine]
[1]
  effect on cisplatin- or carboplatin-induced caspase activity: no reduction in caspase enzymatic activity could be detected
[1]; melphalan 10 μg/ml, N-acetylcysteine 1000 μg/ml
  effect on melphalan-induced Caspase-2 activity: reduced
[2]
  effect on BSO-enhanced taxol cytotoxicity: completely reversed
[3]
  reduction of the cytotoxicity of each alkylator: 75–90%
[3]; on a μg/ml basis
  relative effectiveness among the thiol agents tested: most effective
[3]; read-out: Chemoprotective agent EC50, protection against carboplatin 200 μg/ml (about 90% lethal dose)
  EC50: 200 ± 15 µg/mL (≈ 1230 µM)
[3]; read-out: Chemoprotective agent EC50, protection against cisplatin 15 μg/ml (about 90% lethal dose)
  EC50: 151 ± 15 µg/mL (≈ 925 µM)
[3]; read-out: Chemoprotective agent EC50, protection against melphalan 20 μg/ml (about 90% lethal dose)
  EC50: 74 ± 18 µg/mL (≈ 453 µM)
[4]
  platelet recovery from chemotherapy: recovered from chemotherapy faster
[5]
  chemoprotection against melphalan, cisplatin and carboplatin cytotoxicity: partially to completely chemoprotective
[6]; 1200 mg/kg by aortic infusion 30 minutes prior to chemotherapy, without BSO, 12 animals
  mortality and toxicity: no mortality nor any evidence of toxicity
[6]; 140–800 mg/kg i.v. immediately after chemotherapy, n=4
  bone marrow protection: no detectable bone marrow protection
[6]; dose escalation, n=3
  toxic doses: above 1200 mg/kg
[6]; i.v. versus aortic infusion, Kaplan-Meier, P=0.0014
  mortality by route of administration: i.v. administration significantly more toxic than aortic infusion
[6]; rat, in vivo, 1200 mg/kg
  toxicity: no toxicity
[7]
  effect on BSO-enhanced paclitaxel toxicity: completely reversed the enhanced toxicity
  effect on the dose response for paclitaxel alone: did not change the dose response
[8]
  brain levels: < 5%

Source: patent US7022315B2, “Administration of a thiol-based chemoprotectant compound” (Oregon Health & Science University, priority 2000, dated 2006)
